Assay results published in patent US20250129486A1, “A METHOD FOR MANUFACTURING PHARMACEUTICAL GRADE HYPOCHLOROUS ACID” (priority 2022, published 2025).

What was measured:
[1] = Storage stability of HOCl solution by container; type: physicochemical; conditions: any form of plastic container
Source text: The present invention relates to a method of manufacture of pharmaceutical grade hypochlorous acid (HOCl) solution. The solution is free of toxic by-products and is manufactured by means of a process that is novel. Furthermore, the manufacturing process results in high concentration HOCl solution at a pre-determined pH level. The solution is stable when kept in UV-protected glass for two years. Due to the method and process of manufacture, the solution is of a pharmaceutical grade.
HOCl+UV light→OH+Cl^−+O3 [Reaction Formula 11] • It is therefore essential to store solutions containing HOCl in UV-protected inert containers. • ii) The container in which the solutions are kept should be made of glass. […] Glass containers avoid oxidation reactions between the container and HOCl. • iii) Stable HOCl production requires platinum grade reactants, including pure water without any organic and inorganic compounds or ions, as the oxidation of these compounds will deplete the HOCl concentration in the solution. • iv) Correcting the solution pH to between 4.0-5.80 immediately after manufacturing, through real-time buffering. Variation outside pH 4.0 to 5.80 will not only result in the dissociation of HOCl into Cl2 or OCl^− but will provide the environment for the decomposition of HOCl to form chlorate. It is therefore of utmost importance that this pH level

[2] = cited from earlier work

What does the source list for `OCl` [HOCl, hypochlorous acid]?
Decomposition of HOCl in container [1]: marked decomposition; pKa [2]: 7.53
